Values belong to the molecule of their own block, whether it stands above or below them.
Biological target: T1, Corticotropin-releasing factor receptor 1 (Homo sapiens, UniProt P34998)
T1 sequence (P34998 whole entry): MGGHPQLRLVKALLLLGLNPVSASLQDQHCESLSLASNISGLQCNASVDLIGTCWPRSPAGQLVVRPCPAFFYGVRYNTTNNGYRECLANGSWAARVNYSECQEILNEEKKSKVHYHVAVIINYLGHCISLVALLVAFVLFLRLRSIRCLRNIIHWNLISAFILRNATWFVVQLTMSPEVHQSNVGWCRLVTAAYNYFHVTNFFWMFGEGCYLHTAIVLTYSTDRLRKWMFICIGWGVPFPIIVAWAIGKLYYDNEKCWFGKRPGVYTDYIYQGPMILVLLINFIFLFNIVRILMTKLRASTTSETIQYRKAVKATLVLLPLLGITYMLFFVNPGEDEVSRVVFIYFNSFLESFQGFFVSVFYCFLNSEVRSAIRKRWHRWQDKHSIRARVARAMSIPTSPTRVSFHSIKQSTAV
Experiment: Binding affinity to recombinant human Corticotropin releasing factor receptor 1 (hCRF1) expressed in 293EBNA cells
Type: cell-based

SMILES: CCCC(CCC)Nc1nc(C)nc2c1nnn2-c1c(C)cc(C)cc1C
Ki: 4 nM

SMILES: COCCN(CCOC)c1ncnc2c1nnn2-c1ccc(C(C)C)cc1Br
Ki: 203 nM

SMILES: COCCN(CCOC)c1nc(C)nc2c1c(C)c(C)n2-c1c(C)cc(C)cc1C
Ki: 7.1 nM

SMILES: CCCCN(CC)c1nc(C)nc2c1nc(-c1ccccc1)n2-c1c(Cl)cc(OC)cc1OC
Ki: 133 nM

SMILES: COCCN(CCOC)c1nc(C)nc2c1nnn2-c1c(Br)cc(OC)cc1OC
Ki: 28.3 nM

SMILES: CCCC(C)Nc1nc(C)nc2c1nnn2-c1c(C)cc(C)cc1C (centres undefined)
Ki: 7.1 nM

SMILES: COCCN(CCOC)c1nc(C)nc2c1nnn2-c1ccc(C(C)C)cc1SC
Ki: 15.3 nM

SMILES: CCCCN(CC)c1nc(C)nc2c1nnn2-c1c(Cl)cc(OC)cc1OC
Ki: 4.4 nM

SMILES: CCCCN(CC)c1nc(C)nc2c1ncn2-c1c(C)cc(C)cc1C
Ki: 25 nM

SMILES: Cc1nc(N2CCCCC2)c2nnn(-c3ccc(C(C)C)cc3Br)c2n1
Ki: 46 nM

SMILES: CCCCN(CC)c1nc(C)nc2c1nnn2-c1ccc(Br)cc1Br
Ki: 20.4 nM

SMILES: CCCCC(CC)Nc1nc(C)nc2c1nnn2-c1c(C)cc(C)cc1C (centres undefined)
Ki: 7.6 nM

SMILES: COCCN(CCOC)c1cc(C)nc2c1nc(C)n2-c1ccc(C(C)C)cc1Br
Ki: 9.8 nM

SMILES: CCCCN(CC)c1nc(C)nc2c1nnn2-c1ccc(C(C)=O)cc1Br
Ki: 33.7 nM

SMILES: COCCN(CCOC)c1nc(C)nc2c1nnn2-c1ccc(Br)cc1Br
Ki: 7.4 nM

SMILES: CCCCN(CC)c1nc(C)nc2c1c(C)c(C)n2-c1c(C)cc(C)cc1C [ANTALARMIN]
Ki: 0.84 nM

SMILES: CCC(CO)Nc1nc(C)nc2c1c(C)c(C)n2-c1c(C)cc(C)cc1C (centres undefined)
Ki: 27.3 nM

SMILES: COCCN(CCOC)c1nc(C)nc2c1nnn2-c1c(C)cc(C)cc1C
Ki: 24.1 nM

SMILES: Cc1nc(N2CCCC2)c2nnn(-c3ccc(C(C)C)cc3Br)c2n1
Ki: 194 nM

SMILES: COCC(Cc1ccccc1)Nc1nc(C)nc2c1nnn2-c1ccc(C(C)C)cc1Br (centres undefined)
Ki: 36.7 nM

SMILES: CCCCN(CC)c1nc(C)nc2c1nnn2-c1ccc(S(C)(=O)=O)cc1Br
Ki: 100 nM

SMILES: COCCN(CCOC)c1nc(C)nc2c1ncn2-c1c(Br)cc(OC)cc1OC
Ki: 31.3 nM

SMILES: CCCCN(CC)c1nc(C)nc2c1ncn2-c1c(Cl)cc(OC)cc1OC
Ki: 5.2 nM

SMILES: COCCN(CCOC)c1nc(C)nc2c1nnn2-c1ccc(N(C)C)cc1C(F)(F)F
Ki: 23.5 nM

SMILES: CCCCc1nc2c(N(CC)CCCC)nc(C)nc2n1-c1c(Cl)cc(OC)cc1OC
Ki: 22 nM

SMILES: COCCN(CCOC)c1nc(C)nc2c1ncn2-c1c(C)cc(C)cc1C
Ki: 20.7 nM

Other lines, results leading:

Ki: 3460 nM
SMILES: Cc1nc(N(CCO)CCO)c2nnn(-c3ccc(C(C)C)cc3Br)c2n1

Ki: 2.8 nM
SMILES: CCCC(CC)Nc1nc(C)nc2c1nnn2-c1ccc(C(C)C)cc1Br (centres undefined)

Ki: 242 nM
SMILES: COCCNc1nc(C)nc2c1nnn2-c1ccc(C(C)C)cc1Br

Ki: 3.1 nM
SMILES: CCCCC(CC)Nc1nc(C)nc2c1nnn2-c1ccc(C(C)C)cc1Br (centres undefined)

Ki: 235 nM
SMILES: CCCC(Nc1nc(C)nc2c1nnn2-c1ccc(C(C)C)cc1Br)C(=O)N(C)C (centres undefined)

Ki: 7.5 nM
SMILES: CCC(COC)Nc1nc(C)nc2c1nnn2-c1ccc(C(C)C)cc1Br (stereo in doubt; 4y)

Ki: 12.4 nM
SMILES: CCN(CC)c1nc(C)nc2c1ncn2-c1ccc(C(C)C)cc1Br

Ki: 291 nM
SMILES: COCCCNc1nc(C)nc2c1nnn2-c1ccc(C(C)C)cc1Br

Ki: 32.5 nM
SMILES: CCCCN(CCCC)c1nc(C)nc2c1nnn2-c1ccc(C(C)C)cc1Br

Ki: 1.5 nM
SMILES: CCCCC(CC)Oc1nc(C)nc2c1nnn2-c1ccc(C(C)C)cc1Br (centres undefined)

Ki: 7.1 nM
SMILES: COCC(COC)Oc1nc(C)nc2c1nnn2-c1ccc(C(C)C)cc1Br

Ki: 1.4 nM
SMILES: CCCCN(CC)c1nc(C)nc2c1nc(C(F)(F)F)n2-c1ccc(C(C)C)cc1Br

Ki: 5.1 nM
SMILES: CCCCC(CC)Nc1nc(C)nc2c1ncn2-c1ccc(C(C)C)cc1Br (centres undefined)

Ki: 4.3 nM
SMILES: C=CCN(CCOC)c1nc(C)nc2c1nnn2-c1ccc(C(C)C)cc1Br

Ki: 2.9 nM
SMILES: CCCCC(CC)Oc1nc(C)nc2c1ncn2-c1ccc(C(C)C)cc1Br (centres undefined)

Ki: 210 nM
SMILES: COCCNc1nc(C)nc2c1ncn2-c1ccc(C(C)C)cc1Br

Ki: 9.4 nM
SMILES: CCC(COC)Nc1nc(C)nc2c1nnn2-c1ccc(C(C)C)cc1Br (stereo in doubt; 4z)

Ki: 11.2 nM
SMILES: CCC(COC)N(C)c1nc(C)nc2c1nnn2-c1ccc(C(C)C)cc1Br (centres undefined)
